Assay: xn = mol fraction of the nth substance listed
Conditions: Liquid, Vibrating tube method

CCCCCCCC [octane] + CCCCCC
Conditions	mass density [kg/m3]
323.08 K, 13000 kPa, x2 = 0.1654	685.79
323.08 K, 14000 kPa, x2 = 0.1654	686.73
323.08 K, 15000 kPa, x2 = 0.1654	687.65
323.08 K, 16000 kPa, x2 = 0.1654	688.56
323.08 K, 17000 kPa, x2 = 0.1654	689.44
323.08 K, 18000 kPa, x2 = 0.1654	690.32
323.08 K, 19000 kPa, x2 = 0.1654	691.15
323.08 K, 20000 kPa, x2 = 0.1654	691.98
323.08 K, 21000 kPa, x2 = 0.1654	692.79
323.08 K, 22000 kPa, x2 = 0.1654	693.57
323.08 K, 23000 kPa, x2 = 0.1654	694.36
323.08 K, 24000 kPa, x2 = 0.1654	695.11
323.08 K, 25000 kPa, x2 = 0.1654	695.85
323.09 K, 1000 kPa, x2 = 0.9308	638.41
323.09 K, 2000 kPa, x2 = 0.9308	639.57
323.09 K, 3000 kPa, x2 = 0.9308	640.76
323.09 K, 4000 kPa, x2 = 0.9308	641.92
323.09 K, 5000 kPa, x2 = 0.9308	643.1
323.09 K, 6000 kPa, x2 = 0.9308	644.29
323.09 K, 7000 kPa, x2 = 0.9308	645.46
323.09 K, 8000 kPa, x2 = 0.9308	646.63
323.09 K, 9000 kPa, x2 = 0.9308	647.79
323.09 K, 10000 kPa, x2 = 0.9308	648.93
323.09 K, 11000 kPa, x2 = 0.9308	650.05
323.09 K, 12000 kPa, x2 = 0.9308	651.17
323.09 K, 13000 kPa, x2 = 0.9308	652.26
323.09 K, 14000 kPa, x2 = 0.9308	653.35
323.09 K, 15000 kPa, x2 = 0.9308	654.41
323.09 K, 16000 kPa, x2 = 0.9308	655.45
323.09 K, 17000 kPa, x2 = 0.9308	656.47
323.09 K, 18000 kPa, x2 = 0.9308	657.47
323.09 K, 19000 kPa, x2 = 0.9308	658.44
323.09 K, 20000 kPa, x2 = 0.9308	659.39
323.09 K, 21000 kPa, x2 = 0.9308	660.32
323.09 K, 22000 kPa, x2 = 0.9308	661.2
323.09 K, 23000 kPa, x2 = 0.9308	662.07
323.09 K, 24000 kPa, x2 = 0.9308	662.91
323.09 K, 25000 kPa, x2 = 0.9308	663.72
323.1 K, 1000 kPa, x2 = 0.7995	646.3
323.1 K, 2000 kPa, x2 = 0.7995	647.41
323.1 K, 3000 kPa, x2 = 0.7995	648.55
323.1 K, 4000 kPa, x2 = 0.7995	649.72
323.1 K, 5000 kPa, x2 = 0.7995	650.83
323.1 K, 6000 kPa, x2 = 0.7995	651.95
323.1 K, 7000 kPa, x2 = 0.7995	653.08
323.1 K, 8000 kPa, x2 = 0.7995	654.18
323.1 K, 9000 kPa, x2 = 0.7995	655.3
323.1 K, 10000 kPa, x2 = 0.7995	656.41
323.1 K, 11000 kPa, x2 = 0.7995	657.51
323.1 K, 12000 kPa, x2 = 0.7995	658.59
323.1 K, 13000 kPa, x2 = 0.7995	659.66
323.1 K, 14000 kPa, x2 = 0.7995	660.72
323.1 K, 15000 kPa, x2 = 0.7995	661.75
323.1 K, 16000 kPa, x2 = 0.7995	662.76
323.1 K, 17000 kPa, x2 = 0.7995	663.74
323.1 K, 18000 kPa, x2 = 0.7995	664.69
323.1 K, 19000 kPa, x2 = 0.7995	665.64
323.1 K, 20000 kPa, x2 = 0.7995	666.56
323.1 K, 21000 kPa, x2 = 0.7995	667.44
323.1 K, 22000 kPa, x2 = 0.7995	668.32
323.1 K, 23000 kPa, x2 = 0.7995	669.16
323.1 K, 24000 kPa, x2 = 0.7995	669.96
323.1 K, 25000 kPa, x2 = 0.7995	670.76
332.95 K, 1000 kPa, x2 = 0.5749	649.41
332.95 K, 2000 kPa, x2 = 0.5749	650.55
332.95 K, 3000 kPa, x2 = 0.5749	651.69
332.95 K, 4000 kPa, x2 = 0.5749	652.87
332.95 K, 5000 kPa, x2 = 0.5749	654.06
332.95 K, 6000 kPa, x2 = 0.5749	655.21
332.95 K, 7000 kPa, x2 = 0.5749	656.35
332.95 K, 8000 kPa, x2 = 0.5749	657.49
332.95 K, 9000 kPa, x2 = 0.5749	658.63
332.95 K, 10000 kPa, x2 = 0.5749	659.75
332.95 K, 11000 kPa, x2 = 0.5749	660.86
332.95 K, 12000 kPa, x2 = 0.5749	661.96
332.95 K, 13000 kPa, x2 = 0.5749	663.04
332.95 K, 14000 kPa, x2 = 0.5749	664.1
332.95 K, 15000 kPa, x2 = 0.5749	665.14
332.95 K, 16000 kPa, x2 = 0.5749	666.16
332.95 K, 17000 kPa, x2 = 0.5749	667.18
332.95 K, 18000 kPa, x2 = 0.5749	668.14
332.95 K, 19000 kPa, x2 = 0.5749	669.09
332.95 K, 20000 kPa, x2 = 0.5749	670.02
332.95 K, 21000 kPa, x2 = 0.5749	670.93
332.95 K, 22000 kPa, x2 = 0.5749	671.82
332.95 K, 23000 kPa, x2 = 0.5749	672.7
332.95 K, 24000 kPa, x2 = 0.5749	673.55
332.95 K, 25000 kPa, x2 = 0.5749	674.35
333.01 K, 1000 kPa, x2 = 0.9308	629.03
333.01 K, 2000 kPa, x2 = 0.9308	630.32
333.01 K, 3000 kPa, x2 = 0.9308	631.62
333.01 K, 4000 kPa, x2 = 0.9308	632.91
333.01 K, 5000 kPa, x2 = 0.9308	634.2
333.01 K, 6000 kPa, x2 = 0.9308	635.48

Reference: the NIST ThermoML archive (doi:10.1021/je200721d)
